# Experimental data taken from US12441704B2, “Compounds active towards nuclear receptors” (NUEVOLUTION A/S, priority 2019, dated 2025).
# Where two headings read alike, the source gives them in different places.
# Tests used:
# [1] = tested on: IL-17A secretion in activated PBMCs; assay: IL-17A secretion in activated PBMCs; assay type: cell-based, human; details: human PBMCs stimulated with CD3/CD28 Dynabeads for 48 h, absolute IC50
# Description: Heparin-treated whole blood from healthy human volunteers was supplied from Hospital de Sant Pau (Barcelona) under the approval of the local ethical review board for human studies (Hospital de Sant Pau, Barcelona, Spain). Human peripheral blood mononuclear cells (PBMCs) were isolated from healthy human volunteers by density gradient centrifugation using the Ficoll-Paque (GE Healthcare). […] Cells were seeded in 384-well plate (DiscoverX), at 40,000 cells per well and cultured 2 h at 37° C. and 5% CO2.
# Dose-response curves with compounds were prepared using a 5-fold serial dilution (10 concentrations) in 100% DMSO and further diluted 100-fold in culture medium. Compound solutions (5 μL) were added to the plate containing cells (final DMSO concentration of 0.1%) and incubated for 30 min. Then, cells were stimulated with CD3/CD28 Dynabeads (ThermoFisher, at a bead-to-cell ratio of 1:1) for 48 h at 37° C. and 5% CO2.
# IL-17A levels in supernatant were determined by immunoassay using hIL17A QBeads (Intellicyt) and by fluorescence analysis in iQue flow cytometer following the manufacturer's instructions. Inhibition of IL-17A secretion was calculated using the following formula: inhibition=100*[1−[(x−mean basal condition)/(mean top condition−mean basal condition)]]. Activated DMSO-treated cells were used as top condition and activated GNE09461 (10 μM)-treated cells as basal condition.
# [2] = biological target: T1, RORγ ligand-binding domain fused to Gal4 (Homo sapiens, UniProt P51449); assay: RORγ Reporter Assay (Gal4); assay type: cell-based
# T1 construct: Gal4 (galactose-responsive transcription factor); expressed in transfected cells; host or cells: HEK293
# T1 sequence (P51449 269-508 limits assumed): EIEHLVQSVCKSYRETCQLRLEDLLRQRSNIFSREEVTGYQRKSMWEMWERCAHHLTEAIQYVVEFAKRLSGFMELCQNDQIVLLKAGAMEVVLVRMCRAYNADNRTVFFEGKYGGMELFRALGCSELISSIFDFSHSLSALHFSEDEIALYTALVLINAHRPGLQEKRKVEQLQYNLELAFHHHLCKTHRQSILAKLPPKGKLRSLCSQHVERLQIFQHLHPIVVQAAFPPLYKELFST
# Method in brief: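 Percent inhibition was derived from luciferase RLU versus vehicle mean after 24 h compound incubation (37 °C, 0.1% DMSO). The cells were HEK293, transiently co-expressing a Gal4–RORγ ligand-binding-domain fusion plus a UAS-driven luciferase gene.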
# [3] = HEK293 cells co-transfected with RORγ LBD-Gal4 and luciferase reporter, 24 h incubation, absolute EC50, read-out: EC50
# [4] = compounds of the present disclosure, value from Table 2 herein, read-out: Gal4 assay EC50
"EC50 [2, 3] [nM]","EC50 [2, 4] [nM]",SMILES,IC50 [1] [nM],"IC50 ([1]; Homo sapiens, PBMC, 48 h) [nM]"
88,–,"CCN(Cc1ccc(C(F)(F)F)cc1)c1ncnc(NC[C@H]2CCN(C(CO)C(N)=O)C[C@@H]2O)c1F (relative stereo) [Example A7-66-2, rel-(R)-2-((3R,4R)-4-(((6-(ethyl(4-(trifluoromethyl)benzyl)amino)-5-fluoropyrimidin-4-yl)amino)methyl)-3-hydroxypiperidin-1-yl)-3-hydroxypropanamide OR rel-(R)-2-((3S,4S)-4-(((6-(ethyl(4-(trifluoromethyl)benzyl)amino)-5-fluoropyrimidin-4-yl)amino)methyl)-3-hydroxypiperidin-1-yl)-3-hydroxypropanamide]",210,–
2.7,–,"[2H]C([2H])(C(N)=O)N1CC[C@@H](CNc2ncnc(N(Cc3ccc(C(F)(F)F)cc3)C3CC3)c2F)[C@H](O)C1 (relative stereo) [Example A7-69, rel-2-((3R,4R)-4-(((6-(cyclopropyl(4-(trifluoromethyl)benzyl)amino)-5-fluoropyrimidin-4-yl)amino)methyl)-3-hydroxypiperidin-1-yl)acetamide-2,2-d2]",–,3.1
5.5,–,"CCN(Cc1ccc(C(O)(C(F)(F)F)C(F)(F)F)cc1)c1ncnc(NC[C@]2(O)CCN(CC(N)=O)C[C@H]2O)c1F (relative stereo) [Example D5-04, rel-2-((3R,4R)-4-(((6-(ethyl(4-(1,1,1,3,3,3-hexafluoro-2-hydroxypropan-2-yl)benzyl)amino)-5-fluoropyrimidin-4-yl)amino)methyl)-3,4-dihydroxypiperidin-1-yl)acetamide]",–,1
4.5,–,"CCN(Cc1ccc(C(F)(F)F)cc1)c1ncnc(NC[C@@]2(O)CCN(C(C(N)=O)c3ccncc3)C[C@@H]2O)c1F (relative stereo) [Example D5-07, rel-2-((3R,4R)-4-(((6-(ethyl(4-(trifluoromethyl)benzyl)amino)-5-fluoropyrimidin-4-yl)amino)methyl)-3,4-dihydroxypiperidin-1-yl)-2-(pyridin-4-yl)acetamide]",–,2.5
6.1,–,"NC(=O)C(c1ccncc1)N1CC[C@](O)(CNc2ncnc(N(Cc3ccc(C(F)(F)F)cc3)C3CC3)c2F)[C@@H](O)C1 (relative stereo) [Example D5-08, rel-2-((3R,4R)-4-(((6-(cyclopropyl(4-(trifluoromethyl)benzyl)amino)-5-fluoropyrimidin-4-yl)amino)methyl)-3,4-dihydroxypiperidin-1-yl)-2-(pyridin-4-yl)acetamide]",–,2.7
8.3,< 100,"NC(=O)CN1CC[C@@H](CNc2ncnc(N(Cc3ccc(C(F)(F)F)cn3)C3CC3)c2F)[C@H](O)C1 (single isomer, unassigned) [Example A7-14-1]",–,38
42,–,"NC(=O)CN1CC[C@@H](CNc2ncnc(N(Cc3ccc(C(F)(F)F)nc3)C3CC3)c2F)[C@H](O)C1 (single isomer, unassigned) [Example A7-28-1]",–,62
–,< 100,"NC(=O)CN1CC[C@H](CNc2ncnc(N(Cc3ccc(C(F)(F)F)nc3)C3CC3)c2F)[C@@H](O)C1 (single isomer, unassigned) [Example A7-28-2]",–,81
3.8,–,"NC(=O)CN1CC[C@@H](CNc2ncnc(N(Cc3ccc(C(O)(C(F)(F)F)C(F)(F)F)cc3)C3CC3)c2F)[C@H](O)C1 (single isomer, unassigned) [Example A7-54-1]",–,9.8
9.6,–,"CCN(Cc1ccc(C(F)(F)F)cc1)c1ncnc(NC[C@]2(O)CCN(CC(N)=O)C[C@H]2O)c1F (single isomer, unassigned) [Example D5-01-1-2]",24,–
29,–,"Cn1cc(-c2ccc(CN(c3ncnc(NC[C@]4(O)CCN(CC(N)=O)C[C@H]4O)c3F)C3CC3)c(F)c2)cn1 (single isomer, unassigned) [Example D5-05-2]",200,–
1.5,–,"NC(=O)CN1CC[C@H](CNc2ncnc(N(Cc3ccc(C(F)(F)F)cc3)C3CC3)c2F)[C@@H](O)C1 (stereo in doubt) [Example A7-01-2, rel-2-((3R,4R)-4-(((6-(Cyclopropyl(4-(trifluoromethyl)benzyl)amino)-5-fluoropyrimidin-4-yl)amino)methyl)-3-hydroxypiperidin-1-yl)acetamide]",–,2.7
8.5,–,"CCN(Cc1ccc(C(F)(F)F)cc1F)c1ncnc(NC[C@H]2CCN(CC(N)=O)C[C@@H]2O)c1F (stereo in doubt) [Example A7-26-2, rel-2-((3R,4R)-4-(((6-(ethyl(2-fluoro-4-(trifluoromethyl)benzyl)amino)-5-fluoropyrimidin-4-yl)amino)methyl)-3-hydroxypiperidin-1-yl)acetamide]",–,29
0.6,–,"NC(=O)CN1CC[C@@H](CNc2ncnc(N(Cc3ccc(C(O)(C(F)(F)F)C(F)(F)F)cc3)C3CC3)c2F)[C@H](O)C1 (stereo in doubt) [Example A7-54, rac-2-((3R,4R)-4-(((6-(cyclopropyl(4-(1,1,1,3,3,3-hexafluoro-2-hydroxypropan-2-yl)benzyl)amino)-5-fluoropyrimidin-4-yl)amino)methyl)-3-hydroxypiperidin-1-yl)acetamide]",–,5.6
2.5,–,"NC(=O)CN1CC[C@H](CNc2ncnc(N(Cc3ccc(C(O)(C(F)(F)F)C(F)(F)F)cc3)C3CC3)c2F)[C@@H](O)C1 (stereo in doubt) [Example A7-54-2, rel-2-((3R,4R)-4-(((6-(cyclopropyl(4-(1,1,1,3,3,3-hexafluoro-2-hydroxypropan-2-yl)benzyl)amino)-5-fluoropyrimidin-4-yl)amino)methyl)-3-hydroxypiperidin-1-yl)acetamide]",–,6.2
76,–,"Cc1cc(C(F)(F)F)ccc1CN(c1ncnc(NCC2CCN(CC(N)=O)CC2)c1F)C1CC1 [Example A7-02, 2-(4-(((6-(cyclopropyl(2-methyl-4-(trifluoromethyl)benzyl)amino)-5-fluoropyrimidin-4-yl)amino)methyl)piperidin-1-yl)acetamide]",–,58
44,< 100,"NC(=O)CN1CCC(O)(CNc2ncnc(N(Cc3ccc(C(F)(F)F)cn3)C3CC3)c2F)CC1 [Example A7-09, 2-(4-(((6-(cyclopropyl((5-(trifluoromethyl)pyridin-2-yl)methyl)amino)-5-fluoropyrimidin-4-yl)amino)methyl)-4-hydroxypiperidin-1-yl)acetamide]",–,190
3.3,–,"NC(=O)CN1CCC(O)(CNc2ncnc(N(Cc3ccc(C(F)(F)F)cc3)C3CC3)c2F)CC1 [Example A7-10, 2-(4-(((6-(cyclopropyl(4-(trifluoromethyl)benzyl)amino)-5-fluoropyrimidin-4-yl)amino)methyl)-4-hydroxypiperidin-1-yl)acetamide]",–,17
72,< 100,"NC(=O)CN1CCC(O)(CNc2ncnc(N(Cc3ccc(C(F)(F)F)nc3)C3CC3)c2F)CC1 [Example A7-11, 2-(4-(((6-(cyclopropyl((6-(trifluoromethyl)pyridin-3-yl)methyl)amino)-5-fluoropyrimidin-4-yl)amino)methyl)-4-hydroxypiperidin-1-yl)acetamide]",–,200
24,–,"NC(=O)CN1CCC(CNc2ncnc(N(Cc3ccc(C(F)(F)F)cc3)C3CC3)c2F)(C(N)=O)CC1 [Example A7-44, 1-(2-amino-2-oxoethyl)-4-(((6-(cyclopropyl(4-(trifluoromethyl)benzyl)amino)-5-fluoropyrimidin-4-yl)amino)methyl)piperidine-4-carboxamide]",–,74
46,< 100,"NC(=O)CN1CCC(CO)(CNc2ncnc(N(Cc3ccc(C(F)(F)F)nc3)C3CC3)c2F)CC1 [Example A7-45, 2-(4-(((6-(cyclopropyl((6-(trifluoromethyl)pyridin-3-yl)methyl)amino)-5-fluoropyrimidin-4-yl)amino)methyl)-4-(hydroxymethyl)piperidin-1-yl)acetamide]",–,80
8.1,–,"N#CC1(CNc2ncnc(N(Cc3ccc(C(F)(F)F)cc3)C3CC3)c2F)CCN(CC(N)=O)CC1 [Example A7-50, 2-(4-cyano-4-(((6-(cyclopropyl(4-(trifluoromethyl)benzyl)amino)-5-fluoropyrimidin-4-yl)amino)methyl)piperidin-1-yl)acetamide]",–,40
